Results on one compound are retold here after article PMC3920478, “Small molecule-mediated refolding and activation of myosin motor function” (eLife, 2014).

For one assay, the target named is T1, β-cardiac myosin S1 (Sus scrofa, UniProt P79293).
T1 construct: S1 and HMM fragments were produced by proteolytic digestion of the full-length proteins with 0.05 mg/ml papain; from tissue; host or cells: porcine cardiac muscle
As to the kind of experiment: Microscale thermophoresis direct binding. Also noted: species or system Porcine. The source says: (§1) Proteolytic fragments were further purified by actin-coprecipitation.
For orientation: Microscale thermophoresis detects binding through changes in fluorescence in a small temperature gradient.

Assay [1] deals with T2, Dd myosin-2 ΔSH3 (lacks residues 33–79) (Dictyostelium discoideum, UniProt P08799, DEL33-79).
T2 construct: Dd myosin-2 ΔSH3, a recombinant motor domain construct that lacks this subdomain; made in house
T2 sequence (P08799 other isoform, or with tags, fused parts or gaps DEL33-79): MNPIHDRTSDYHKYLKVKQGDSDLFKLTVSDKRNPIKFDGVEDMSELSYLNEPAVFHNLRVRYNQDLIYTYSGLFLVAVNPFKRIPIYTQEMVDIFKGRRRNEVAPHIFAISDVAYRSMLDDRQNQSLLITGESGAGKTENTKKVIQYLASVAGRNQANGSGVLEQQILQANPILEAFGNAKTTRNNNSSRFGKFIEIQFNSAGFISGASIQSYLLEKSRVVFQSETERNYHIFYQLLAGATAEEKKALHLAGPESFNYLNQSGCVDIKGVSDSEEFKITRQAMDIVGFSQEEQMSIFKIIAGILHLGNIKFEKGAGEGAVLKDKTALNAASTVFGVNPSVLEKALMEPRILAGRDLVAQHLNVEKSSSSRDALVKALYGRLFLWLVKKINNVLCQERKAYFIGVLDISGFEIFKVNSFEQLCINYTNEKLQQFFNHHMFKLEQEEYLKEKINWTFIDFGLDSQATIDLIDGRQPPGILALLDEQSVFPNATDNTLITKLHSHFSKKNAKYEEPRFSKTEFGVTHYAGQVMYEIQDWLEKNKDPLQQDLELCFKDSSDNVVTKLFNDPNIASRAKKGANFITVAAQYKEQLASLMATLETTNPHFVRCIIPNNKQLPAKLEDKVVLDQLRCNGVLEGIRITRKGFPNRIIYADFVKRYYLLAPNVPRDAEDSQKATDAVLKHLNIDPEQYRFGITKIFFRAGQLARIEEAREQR
As to the kind of experiment: Direct binding to truncated construct. The settings on record: construct lacks SH3-like β-barrel.

The target in assay [2] is Skeletal muscle myosin-2 (HMM). As to the kind of experiment: Steady-state basal and actin-activated Mg2+-ATPase (NADH-coupled assay). Type of assay: biochemical, Rabbit. The protocol: Rabbit fast skeletal muscle heavy meromyosin (HMM) was prepared as described by [Margossian and Lowey (1982)]. Porcine β-cardiac myosin was prepared essentially as described by [Pant et al. (2009)] and [Jacques et al. (2008)] and further purified by gel filtration. S1 and HMM fragments were produced by proteolytic digestion of the full-length proteins with 0.05 mg/ml papain (10 min, 25°C) for S1 and with 0.1 mg/ml TLCK-treated α-chymotrypsin (15 min, 25°C) for HMM. Reactions were stopped with specific protease inhibitors for papain (10 µM E−64) and chymotrypsin (10 µM chymostatin, 1 mM benzamidine). Proteolytic fragments were further purified by actin-coprecipitation. Pellets were washed twice and myosin was extracted from the pellets using ATP containing buffer. Gel filtration was used to further increase purity of myosin S1 and HMM fragments. His-tagged motor domain constructs of Dd myosin-2, Dd myosin-1B, Dd myosin-1C, Dd myosin-1D, Dd myosin-1E, Dd myosin-5b fused to two Dd α-actinin repeats substituting the light-chain binding domains ([Anson et al., 1996]) were expressed in Dd AX3-ORF + cells and purified by Ni^2+-chelate affinity chromatography ([Manstein and Hunt, 1995]).
Basal and actin-activated Mg^2+-ATPase activities were measured using the NADH-coupled assay described previously ([Furch et al., 1998]) adapted for higher throughput screens for a temperature controlled plate reader (Multiscan FC, Thermo Scientific, Waltham, MA) at 25°C. […] Control measurements were carried out in the absence of drug, as well as in the presence of according concentrations of the non-binding (−)-enantiomer EMD 57439 to account for possible absorption effects. […] Data points are mean values from 3 to 5 independent experiments. Error bars indicate standard deviations.

In the next assay the target is T3, Dd myosin-2 motor domain (Dictyostelium discoideum, UniProt P08799).
T3 sequence (P08799 1-761 limits assumed): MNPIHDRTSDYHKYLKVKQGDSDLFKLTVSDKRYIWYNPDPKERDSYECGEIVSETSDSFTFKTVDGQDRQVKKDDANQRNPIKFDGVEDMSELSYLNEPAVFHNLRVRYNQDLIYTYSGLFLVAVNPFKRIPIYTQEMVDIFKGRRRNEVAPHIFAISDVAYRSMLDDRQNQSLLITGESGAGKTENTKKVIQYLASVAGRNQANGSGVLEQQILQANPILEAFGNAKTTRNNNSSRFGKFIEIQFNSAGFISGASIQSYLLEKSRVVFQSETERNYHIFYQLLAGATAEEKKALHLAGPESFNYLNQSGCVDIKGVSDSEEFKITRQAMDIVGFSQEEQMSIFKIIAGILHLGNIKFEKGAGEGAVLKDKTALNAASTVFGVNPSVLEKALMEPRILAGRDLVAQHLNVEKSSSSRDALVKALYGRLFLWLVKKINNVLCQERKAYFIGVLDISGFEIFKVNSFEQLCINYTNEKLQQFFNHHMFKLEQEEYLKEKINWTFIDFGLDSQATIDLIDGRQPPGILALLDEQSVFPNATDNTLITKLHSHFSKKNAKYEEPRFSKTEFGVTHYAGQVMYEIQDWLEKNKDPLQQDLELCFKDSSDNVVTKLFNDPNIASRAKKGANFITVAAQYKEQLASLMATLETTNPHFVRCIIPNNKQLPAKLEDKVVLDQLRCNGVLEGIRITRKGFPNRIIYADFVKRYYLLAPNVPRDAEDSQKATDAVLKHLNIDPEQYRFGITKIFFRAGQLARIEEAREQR
Described as above. The format is biochemical. The protocol: as §1
(§2) Basal and actin-activated Mg^2+-ATPase activities were measured using the NADH-coupled assay described previously ([Furch et al., 1998]) adapted for higher throughput screens for a temperature controlled plate reader (Multiscan FC, Thermo Scientific, Waltham, MA) at 25°C. EMD 57033 was added to the reaction mixture in the absence of nucleotide and incubated before the reaction was started by the addition of ATP. Control measurements were carried out in the absence of drug, as well as in the presence of according concentrations of the non-binding (−)-enantiomer EMD 57439 to account for possible absorption effects. […] Data points are mean values from 3 to 5 independent experiments. Error bars indicate standard deviations.

In assay [3] the target is T4, Dd myosin-2 ΔSH3 (lacks residues 33–79) (Dictyostelium discoideum, UniProt P08799, DEL34-80).
T4 construct: Dd myosin-2 ΔSH3, a recombinant motor domain construct that lacks this subdomain; made in house
T4 sequence (P08799 other isoform, or with tags, fused parts or gaps DEL34-80): as the sequence (P08799 other isoform, or with tags, fused parts or gaps DEL33-79) above
The assay is described as above. The format is biochemical.
Source text: Initial blind docking to homology models of the β-cardiac myosin motor domain in the post-rigor state indicated preferred binding of the drug to a region near the small N-terminal, SH3-like βbarrel subdomain. Important contacts are predicted to involve the SH3-like subdomain (residues 34–72) and two α-helices (residues 20–28 and 98–111). […] The sets of binding poses differ mainly in the orientation of the dimethylated catechol group, occupying either of the two possible branches of the Y, while the thiadiazinone moiety appears little affected and resides in the root of the Y shaped cavity (Figure 2A,B). Potential residues involved in the binding of the thiadiazinone and tetrahydroquinoline moieties of the compound include Arg23, Asp85, Lys86, Asp107, Arg108, and Ser111. The dimethylated catechol moiety is mainly bound by residues Lys34, Lys48, and Gln79, and thus, interacts with the SH3-like β-barrel.
as §2

Another assay deals with β-cardiac myosin (Sus scrofa, UniProt P79293). As to the kind of experiment: Frictional loading experiments with α-actinin (force production). Set-up: β-Cardiac myosin-2 (S1, full-length); from tissue; host or cells: porcine cardiac muscle. Type of assay: biochemical, Porcine. The source says:
In addition, the fraction of moving filaments increased from <75% to >95%. […] In initial experiments, we determined the minimal concentration of α-actinin molecules that generate sufficient load to stall the movement of actin filaments for a given surface density of myosin heads. […] Next, we generated in vitro motility flow cells with actin filaments held at stall force. […] The time-dependence of the recovery of motile activity is best fit by a hyperbola. A plateau value of 0.4 μm s^−1 is reached after more than 2 hr (Figure 1G).

Setting [4] is: 25 μM EMD 57033, 8 µg/ml α-actinin.

Sequence of β-cardiac myosin (P79293 whole entry): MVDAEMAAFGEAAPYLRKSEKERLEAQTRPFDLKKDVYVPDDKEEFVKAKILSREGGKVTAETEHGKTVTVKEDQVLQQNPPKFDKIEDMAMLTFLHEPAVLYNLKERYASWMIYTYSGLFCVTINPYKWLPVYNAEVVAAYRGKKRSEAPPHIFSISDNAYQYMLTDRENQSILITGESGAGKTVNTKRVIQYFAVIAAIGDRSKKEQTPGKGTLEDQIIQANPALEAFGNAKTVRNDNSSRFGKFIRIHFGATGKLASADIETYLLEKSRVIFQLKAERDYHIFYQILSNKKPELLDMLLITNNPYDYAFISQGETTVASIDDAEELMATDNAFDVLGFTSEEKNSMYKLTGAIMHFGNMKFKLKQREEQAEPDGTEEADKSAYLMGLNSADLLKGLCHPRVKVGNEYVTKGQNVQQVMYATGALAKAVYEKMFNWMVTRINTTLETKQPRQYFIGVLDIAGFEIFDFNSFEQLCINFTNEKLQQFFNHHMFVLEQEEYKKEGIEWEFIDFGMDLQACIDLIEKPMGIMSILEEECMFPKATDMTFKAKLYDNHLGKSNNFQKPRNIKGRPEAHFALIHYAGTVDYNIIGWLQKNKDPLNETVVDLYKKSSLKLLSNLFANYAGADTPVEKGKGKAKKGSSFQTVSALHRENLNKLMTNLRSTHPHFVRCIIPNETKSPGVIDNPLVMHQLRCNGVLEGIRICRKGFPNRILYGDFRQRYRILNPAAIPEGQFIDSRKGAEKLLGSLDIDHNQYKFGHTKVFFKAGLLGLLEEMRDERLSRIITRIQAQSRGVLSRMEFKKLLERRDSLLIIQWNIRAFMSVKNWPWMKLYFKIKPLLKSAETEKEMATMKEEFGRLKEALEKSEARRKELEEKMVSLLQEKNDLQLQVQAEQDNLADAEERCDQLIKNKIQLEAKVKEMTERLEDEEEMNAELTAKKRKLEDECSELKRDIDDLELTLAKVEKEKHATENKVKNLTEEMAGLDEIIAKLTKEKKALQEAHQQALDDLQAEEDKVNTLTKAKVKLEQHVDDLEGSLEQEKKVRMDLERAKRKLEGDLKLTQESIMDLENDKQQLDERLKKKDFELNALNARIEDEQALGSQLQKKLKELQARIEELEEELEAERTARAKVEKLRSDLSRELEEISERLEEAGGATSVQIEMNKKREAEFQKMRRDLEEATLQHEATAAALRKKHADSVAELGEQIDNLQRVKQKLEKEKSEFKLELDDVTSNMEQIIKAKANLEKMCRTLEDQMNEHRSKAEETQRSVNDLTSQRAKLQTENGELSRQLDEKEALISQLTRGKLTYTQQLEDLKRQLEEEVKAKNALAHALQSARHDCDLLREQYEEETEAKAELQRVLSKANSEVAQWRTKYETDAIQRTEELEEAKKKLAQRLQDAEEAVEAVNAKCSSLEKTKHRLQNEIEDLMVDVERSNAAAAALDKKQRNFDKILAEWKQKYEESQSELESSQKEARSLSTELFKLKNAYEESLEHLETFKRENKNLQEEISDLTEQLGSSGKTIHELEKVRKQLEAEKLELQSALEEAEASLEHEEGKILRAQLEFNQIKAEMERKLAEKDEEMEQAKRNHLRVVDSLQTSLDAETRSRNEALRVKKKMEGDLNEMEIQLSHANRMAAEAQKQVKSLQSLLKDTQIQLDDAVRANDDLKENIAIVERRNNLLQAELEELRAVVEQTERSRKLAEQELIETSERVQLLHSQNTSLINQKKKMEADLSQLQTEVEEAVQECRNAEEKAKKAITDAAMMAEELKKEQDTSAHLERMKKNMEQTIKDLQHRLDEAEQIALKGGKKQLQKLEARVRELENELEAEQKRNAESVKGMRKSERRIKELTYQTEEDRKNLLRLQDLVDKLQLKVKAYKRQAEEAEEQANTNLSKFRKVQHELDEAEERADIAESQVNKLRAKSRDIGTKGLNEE
T1 sequence (P79293 1-843 limits assumed): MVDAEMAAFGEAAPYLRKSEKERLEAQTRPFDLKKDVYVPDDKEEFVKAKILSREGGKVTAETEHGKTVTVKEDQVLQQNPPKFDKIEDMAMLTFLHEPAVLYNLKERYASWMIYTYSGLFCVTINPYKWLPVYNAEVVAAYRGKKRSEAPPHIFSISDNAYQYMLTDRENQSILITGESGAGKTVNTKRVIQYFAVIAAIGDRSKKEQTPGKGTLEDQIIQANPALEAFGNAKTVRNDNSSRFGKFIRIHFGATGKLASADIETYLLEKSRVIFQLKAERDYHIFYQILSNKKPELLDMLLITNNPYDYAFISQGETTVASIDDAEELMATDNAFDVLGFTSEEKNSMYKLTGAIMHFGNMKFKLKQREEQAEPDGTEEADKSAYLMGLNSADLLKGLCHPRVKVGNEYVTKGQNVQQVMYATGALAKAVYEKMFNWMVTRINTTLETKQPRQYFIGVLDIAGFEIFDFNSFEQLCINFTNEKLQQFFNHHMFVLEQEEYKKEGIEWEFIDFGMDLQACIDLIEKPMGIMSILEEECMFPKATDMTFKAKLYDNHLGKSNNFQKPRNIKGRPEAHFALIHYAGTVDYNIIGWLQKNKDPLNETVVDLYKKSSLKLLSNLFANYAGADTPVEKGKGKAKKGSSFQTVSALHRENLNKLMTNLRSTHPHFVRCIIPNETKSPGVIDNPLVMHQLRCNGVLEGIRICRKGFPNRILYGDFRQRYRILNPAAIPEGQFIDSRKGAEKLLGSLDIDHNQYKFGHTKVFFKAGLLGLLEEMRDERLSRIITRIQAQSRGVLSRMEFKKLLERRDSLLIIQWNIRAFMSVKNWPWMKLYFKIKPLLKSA

As usually defined, the Kd is a measure of binding affinity in units of concentration. In general, AC50 refers to the concentration at which the activity in the assay is half-maximal. A lower AC50 goes with greater potency. For `COc1ccc(C(=O)N2CCCc3cc(C4=NNC(=O)SC4C)ccc32)cc1OC` (centres unmarked) [EMD 57033], the Binding stoichiometry result at β-cardiac myosin S1 is recorded as “one molecule of EMD 57033 per myosin head”. Besides, the dissociation constant Kd at β-cardiac myosin S1 (fluorescently labeled β-cardiac myosin S1, 100 nM, fit to Hill equation, read-out: Binding affinity (MST), KD) was found to be 7.3 µM. In assay [1], the Direct binding entry was “neither binding”. Also, the AC50 in assay [2] turned out to be 15.1 µM; at Dd myosin-2 motor domain, 25.8 µM. Besides, the “Activation potency relative to β-cardiac myosin (weaker)” value in assay [2] is “twofold”. Moreover, the “Normalized maximal ATPase activation (basal)” value is reported as 1.6 in assay [2], 1.4 at Dd myosin-2 motor domain and “no effect” in assay [3]. In addition, the “Normalized maximal ATPase activation (with 30 µM actin)” value in assay [2] (30 µM actin) was 2.2; on Dd myosin-2 motor domain (30 µM actin), 2.8; in assay [3] (30 µM actin), “no effect”. The “Basal ATP turnover relative to that expected for 100% active protein” value at Dd myosin-2 motor domain (saturating EMD 57033) was 1.4 fold. Further, in assay [3] (100 µM EMD 57033), the “ATPase / chemomechanical activation of the truncated construct” value is listed as “no significant activation”. The “Plateau value of recovered filament velocity at stall load” value at β-cardiac myosin (setting [4]) was determined as 0.4 μm s^−1. The “Time to reach plateau of recovered motility” value on β-cardiac myosin (setting [4]) is on record as “more than 2 hr”. Also, the “α-actinin concentration required to stall filament movement” value on β-cardiac myosin (in presence of EMD 57033) was at least 12 µg/mL.
